Activity calls are given as the source filed them. The calls are words filed in the database; no cut-off is given here.
How the values were obtained:
[1] = Toxicity in female NSG mouse assessed as effect on lung at 20 to 40 mg/kg, po measured after 21 days by H and E staining based analysis; type: organism-based; conditions: in vivo, 504 h, dose 20-40 mg/kg, time 21 day
[2] = system: MOLM-13; experiment: Effect on FLT3 level in human MOLM-13 cells at 0.04 to 5 nM measured after 2 hrs by Western blot analysis; type: functional, cell-based; conditions: dose 0.04-5 nM
[3] = target: T1, Vascular endothelial growth factor receptor 1 (Homo sapiens, UniProt P17948); experiment: Inhibition of FLT (unknown origin) preincubated for 10 mins followed by addition of peptide solution by caliper mobility shift assay
[4] = system: MOLM-13; experiment: Induction of cell cycle arrest in human MOLM-13 cells assessed as accumulation of cells at S phase at 1 uM measured after 48 hrs by PI staining based flow cytometry analysis (reference value: 45.3%); type: functional
[5] = Cmax in Sprague-Dawley rat at 20 mg/kg, po measured upto 48 hrs by LC-MS/MS analysis; type: ADME, organism-based; conditions: in vivo
[6] = target: Tyrosine-protein kinase ABL1 (Homo sapiens) (UniProt P00519); experiment: Inhibition of human ABL1 at 1 uM by Eurofins kinase assay
[7] = target: Fibroblast growth factor receptor 4 (Homo sapiens) (UniProt P22455); experiment: Inhibition of human FGFR4 at 1 uM by Eurofins kinase assay
[8] = target: Death-associated protein kinase 1 (Homo sapiens) (UniProt P53355); experiment: Inhibition of human DAPK1 at 1 uM by Eurofins kinase assay
[9] = Toxicity in female NSG mouse assessed as effect on liver at 20 to 40 mg/kg, po measured after 21 days by H and E staining based analysis; type: organism-based; conditions: in vivo, 504 h, dose 20-40 mg/kg, time 21 day
[10] = system: MOLM-13; experiment: Antitumor activity against human MOLM-13 cells xenografted in female NSG mouse model assessed as delay in tumor growth at 20 to 40 mg/kg/day, po measured after 21 days; type: functional, organism-based; conditions: dose 20-40 mg/kg/day, time 21.0 day
[11] = target: T1, Vascular endothelial growth factor receptor 1; experiment: Inhibition of human FLT assessed as residual activity at 1 uM by Eurofins kinase assay relative to control
[12] = system: MOLM-13; experiment: Induction of cell cycle arrest in human MOLM-13 cells assessed as accumulation of cells at G2 phase at 3 uM measured after 48 hrs by PI staining based flow cytometry analysis (reference value: 12.5%); type: functional
[13] = system: MOLM-13; experiment: Induction of apoptosis in human MOLM-13 cells assessed as viable cells at 3 uM measured after 48 hrs by annexin-V and PI staining based flow cytometry analysis (reference value: 88.7%); type: functional; conditions: read-out: Activity
[14] = target: Tyrosine-protein kinase ZAP-70 (Homo sapiens) (UniProt P43403); experiment: Inhibition of human ZAP-70 at 1 uM by Eurofins kinase assay
[15] = target: Vascular endothelial growth factor receptor 3 (Homo sapiens, UniProt P35916); experiment: Inhibition of FLT4 (unknown origin) preincubated for 10 mins followed by addition of peptide solution by caliper mobility shift assay
[16] = target: Cyclin-dependent kinase 2/cyclin A (Homo sapiens) (UniProt P24941+P20248+P78396); experiment: Inhibition of human CDK2/cyclinA at 1 uM by Eurofins kinase assay; type: protein-complex assay
[17] = target: Aurora kinase B (Homo sapiens) (UniProt Q96GD4); experiment: Inhibition of human AuroraB at 1 uM by Eurofins kinase assay
[18] = target: Receptor-type tyrosine-protein kinase FLT3 (Homo sapiens) (UniProt P36888); experiment: Inhibition of FLT3 phosphorylation in human MOLM-13 cells incubated for 2 hrs by Western blot analysis; type: cell-based; conditions: dose 0.04-5 µM
[19] = organism: Homo sapiens; experiment: Inhibition of human DNA-PK at 1 uM by Eurofins kinase assay
[20] = system: MOLM-13; experiment: Induction of apoptosis in human MOLM-13 cells assessed as late apoptotic cells at 0.3 uM measured after 48 hrs by annexin-V and PI staining based flow cytometry analysis (reference value: 2.28%); type: functional
[21] = target: Proto-oncogene tyrosine-protein kinase ROS (Homo sapiens) (UniProt P08922); experiment: Inhibition of human Ros at 1 uM by Eurofins kinase assay
[22] = target: Fibroblast growth factor receptor 3 (Homo sapiens) (UniProt P22607); experiment: Inhibition of human FGFR3 at 1 uM by Eurofins kinase assay
[23] = target: Receptor-interacting serine/threonine-protein kinase 1 (Homo sapiens) (UniProt Q13546); experiment: Inhibition of human RIPK1 at 1 uM by Eurofins kinase assay
[24] = Half life in Sprague-Dawley rat at 20 mg/kg, po measured upto 48 hrs by LC-MS/MS analysis; type: ADME, organism-based; conditions: in vivo
[25] = system: OE33; experiment: Antiproliferative activity against human OE33 cells assessed as inhibition of cell growth measured after 72 hrs by Celltiter-glo luminescent cell viability assay; type: functional, cell-based; conditions: OE33, 72 h
[26] = system: MOLM-13; experiment: Induction of cell cycle arrest in human MOLM-13 cells assessed as accumulation of cells at G1 phase at 3 uM measured after 48 hrs by PI staining based flow cytometry analysis (reference value: 42.8%); type: functional
[27] = target: ALK tyrosine kinase receptor (Homo sapiens) (UniProt Q9UM73); experiment: Inhibition of human ALK at 1 uM by Eurofins kinase assay
[28] = target: Inhibitor of nuclear factor kappa-B kinase subunit beta (Homo sapiens) (UniProt O14920); experiment: Inhibition of human IKKB at 1 uM by Eurofins kinase assay
[29] = target: Vascular endothelial growth factor receptor 2 (Homo sapiens, UniProt P35968); experiment: Inhibition of VEGFR2 (unknown origin) preincubated for 10 mins followed by addition of peptide solution by caliper mobility shift assay
[30] = Toxicity in female NSG mouse assessed as effect on kidney at 20 to 40 mg/kg, po measured after 21 days by H and E staining based analysis; type: organism-based; conditions: in vivo, 504 h, dose 20-40 mg/kg, time 21 day
[31] = Half life in Sprague-Dawley rat at 5 mg/kg, iv measured upto 48 hrs by LC-MS/MS analysis; type: ADME, organism-based; conditions: in vivo
[32] = system: MOLM-13; experiment: Induction of cell cycle arrest in human MOLM-13 cells assessed as accumulation of cells at G1 phase at 1 uM measured after 48 hrs by PI staining based flow cytometry analysis (reference value: 42.8%); type: functional
[33] = system: EBC-1; experiment: Antiproliferative activity against human EBC-1 cells assessed as inhibition of cell growth measured after 72 hrs by Celltiter-glo luminescent cell viability assay; type: functional, cell-based; conditions: EBC-1, 72 h
[34] = target: Non-receptor tyrosine-protein kinase TYK2 (Homo sapiens) (UniProt P29597); experiment: Inhibition of human TYK2 at 1 uM by Eurofins kinase assay
[35] = target: Serine/threonine-protein kinase PAK 4 (Homo sapiens) (UniProt O96013); experiment: Inhibition of human PAK4 at 1 uM by Eurofins kinase assay
[36] = target: Insulin-like growth factor 1 receptor (Homo sapiens) (UniProt P08069); experiment: Inhibition of human IGF-1R at 1 uM by Eurofins kinase assay
[37] = target: Fibroblast growth factor receptor 2 (Homo sapiens) (UniProt P21802); experiment: Inhibition of human FGFR2 at 1 uM by Eurofins kinase assay
[38] = Oral bioavailability in Sprague-Dawley rat at 20 mg/kg measured upto 48 hrs by LC-MS/MS analysis; type: ADME, organism-based; conditions: in vivo

T1 sequence (P17948 whole entry): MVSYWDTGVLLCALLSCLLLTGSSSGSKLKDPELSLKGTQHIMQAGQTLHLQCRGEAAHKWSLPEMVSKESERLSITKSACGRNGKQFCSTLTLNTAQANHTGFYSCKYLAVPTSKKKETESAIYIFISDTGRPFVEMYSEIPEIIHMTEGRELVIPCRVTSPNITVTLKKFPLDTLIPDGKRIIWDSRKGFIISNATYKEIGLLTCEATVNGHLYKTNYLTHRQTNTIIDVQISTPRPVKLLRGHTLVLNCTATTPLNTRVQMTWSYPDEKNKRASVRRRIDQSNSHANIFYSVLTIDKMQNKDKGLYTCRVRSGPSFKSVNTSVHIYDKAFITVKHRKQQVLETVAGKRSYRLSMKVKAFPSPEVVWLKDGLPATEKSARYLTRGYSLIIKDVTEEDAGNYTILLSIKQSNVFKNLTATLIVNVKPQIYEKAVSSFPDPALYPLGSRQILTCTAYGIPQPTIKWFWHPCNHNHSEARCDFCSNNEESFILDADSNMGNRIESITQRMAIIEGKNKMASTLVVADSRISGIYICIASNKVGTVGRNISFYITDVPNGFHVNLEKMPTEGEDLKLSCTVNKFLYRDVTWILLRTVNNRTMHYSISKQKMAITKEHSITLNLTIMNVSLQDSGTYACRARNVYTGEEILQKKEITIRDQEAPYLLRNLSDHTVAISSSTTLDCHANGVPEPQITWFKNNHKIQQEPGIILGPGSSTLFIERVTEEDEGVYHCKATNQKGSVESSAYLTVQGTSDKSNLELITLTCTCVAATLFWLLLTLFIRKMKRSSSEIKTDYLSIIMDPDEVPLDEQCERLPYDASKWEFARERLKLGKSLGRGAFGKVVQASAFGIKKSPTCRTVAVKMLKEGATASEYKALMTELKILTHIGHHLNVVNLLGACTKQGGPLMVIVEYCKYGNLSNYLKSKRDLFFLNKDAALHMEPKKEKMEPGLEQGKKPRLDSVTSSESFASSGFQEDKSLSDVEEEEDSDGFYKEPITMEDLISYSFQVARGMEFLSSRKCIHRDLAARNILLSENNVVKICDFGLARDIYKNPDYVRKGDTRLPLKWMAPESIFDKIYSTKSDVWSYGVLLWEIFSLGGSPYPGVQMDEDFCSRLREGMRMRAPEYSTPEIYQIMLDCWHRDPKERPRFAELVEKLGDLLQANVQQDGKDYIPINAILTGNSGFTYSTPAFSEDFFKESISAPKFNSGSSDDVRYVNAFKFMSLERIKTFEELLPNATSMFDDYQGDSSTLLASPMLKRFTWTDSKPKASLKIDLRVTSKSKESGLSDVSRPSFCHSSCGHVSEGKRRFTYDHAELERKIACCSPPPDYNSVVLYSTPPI
Sequence of Death-associated protein kinase 1 (Homo sapiens) (P53355 whole entry, looked up): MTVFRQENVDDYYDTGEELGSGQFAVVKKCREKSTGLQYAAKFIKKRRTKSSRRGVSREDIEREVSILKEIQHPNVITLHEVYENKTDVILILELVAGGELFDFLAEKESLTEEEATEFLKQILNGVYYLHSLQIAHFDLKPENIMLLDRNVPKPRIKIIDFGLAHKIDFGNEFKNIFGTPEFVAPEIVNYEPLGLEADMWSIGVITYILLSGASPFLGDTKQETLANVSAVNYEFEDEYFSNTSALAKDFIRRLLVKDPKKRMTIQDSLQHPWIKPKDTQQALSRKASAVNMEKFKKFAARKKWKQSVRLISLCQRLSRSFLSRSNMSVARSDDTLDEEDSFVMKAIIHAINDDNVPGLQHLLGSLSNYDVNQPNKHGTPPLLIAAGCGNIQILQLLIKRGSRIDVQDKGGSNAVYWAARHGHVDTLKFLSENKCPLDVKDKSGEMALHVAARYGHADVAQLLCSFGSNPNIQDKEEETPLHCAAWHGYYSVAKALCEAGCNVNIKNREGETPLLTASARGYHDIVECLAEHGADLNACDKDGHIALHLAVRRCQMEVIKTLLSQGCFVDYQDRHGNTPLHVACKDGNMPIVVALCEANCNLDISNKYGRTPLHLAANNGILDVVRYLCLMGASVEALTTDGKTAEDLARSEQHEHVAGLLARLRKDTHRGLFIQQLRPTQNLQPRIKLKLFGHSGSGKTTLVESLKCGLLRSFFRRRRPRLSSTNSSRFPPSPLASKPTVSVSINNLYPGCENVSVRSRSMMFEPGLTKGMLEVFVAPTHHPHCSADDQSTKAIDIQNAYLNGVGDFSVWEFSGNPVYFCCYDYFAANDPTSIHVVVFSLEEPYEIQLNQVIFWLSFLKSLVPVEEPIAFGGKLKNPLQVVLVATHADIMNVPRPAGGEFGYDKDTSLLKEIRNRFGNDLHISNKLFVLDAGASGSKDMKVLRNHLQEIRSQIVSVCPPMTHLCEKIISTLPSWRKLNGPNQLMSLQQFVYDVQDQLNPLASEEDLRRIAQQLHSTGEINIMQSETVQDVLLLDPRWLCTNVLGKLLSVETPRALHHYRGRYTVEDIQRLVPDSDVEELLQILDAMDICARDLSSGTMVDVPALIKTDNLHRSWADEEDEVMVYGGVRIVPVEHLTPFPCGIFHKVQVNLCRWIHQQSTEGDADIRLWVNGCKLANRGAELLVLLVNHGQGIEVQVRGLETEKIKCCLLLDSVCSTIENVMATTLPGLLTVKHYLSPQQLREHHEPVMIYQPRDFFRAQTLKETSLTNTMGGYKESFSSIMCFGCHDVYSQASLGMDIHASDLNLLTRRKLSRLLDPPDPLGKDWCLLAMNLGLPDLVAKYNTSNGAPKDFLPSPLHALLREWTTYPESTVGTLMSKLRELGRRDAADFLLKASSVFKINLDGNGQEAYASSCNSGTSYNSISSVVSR
Sequence of Receptor-interacting serine/threonine-protein kinase 1 (Homo sapiens) (Q13546 whole entry): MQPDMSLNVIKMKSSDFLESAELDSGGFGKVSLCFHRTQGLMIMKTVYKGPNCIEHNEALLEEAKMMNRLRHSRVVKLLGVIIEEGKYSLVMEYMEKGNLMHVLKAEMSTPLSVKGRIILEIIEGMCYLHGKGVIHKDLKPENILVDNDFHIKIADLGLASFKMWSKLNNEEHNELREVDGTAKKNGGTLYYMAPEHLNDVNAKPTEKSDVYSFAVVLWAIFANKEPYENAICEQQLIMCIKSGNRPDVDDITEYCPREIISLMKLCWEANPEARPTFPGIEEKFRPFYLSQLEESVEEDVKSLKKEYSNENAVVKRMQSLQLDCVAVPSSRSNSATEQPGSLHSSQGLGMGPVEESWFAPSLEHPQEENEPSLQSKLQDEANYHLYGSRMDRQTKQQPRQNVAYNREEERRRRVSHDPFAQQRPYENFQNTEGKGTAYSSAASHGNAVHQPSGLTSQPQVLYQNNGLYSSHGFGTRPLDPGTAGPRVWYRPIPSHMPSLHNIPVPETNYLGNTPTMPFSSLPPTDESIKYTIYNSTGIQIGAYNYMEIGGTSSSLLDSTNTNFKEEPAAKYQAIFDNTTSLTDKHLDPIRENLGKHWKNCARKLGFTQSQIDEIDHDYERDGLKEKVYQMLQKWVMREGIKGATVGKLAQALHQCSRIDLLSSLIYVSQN
Sequence of Fibroblast growth factor receptor 4 (Homo sapiens) (P22455 22-802 limits assumed): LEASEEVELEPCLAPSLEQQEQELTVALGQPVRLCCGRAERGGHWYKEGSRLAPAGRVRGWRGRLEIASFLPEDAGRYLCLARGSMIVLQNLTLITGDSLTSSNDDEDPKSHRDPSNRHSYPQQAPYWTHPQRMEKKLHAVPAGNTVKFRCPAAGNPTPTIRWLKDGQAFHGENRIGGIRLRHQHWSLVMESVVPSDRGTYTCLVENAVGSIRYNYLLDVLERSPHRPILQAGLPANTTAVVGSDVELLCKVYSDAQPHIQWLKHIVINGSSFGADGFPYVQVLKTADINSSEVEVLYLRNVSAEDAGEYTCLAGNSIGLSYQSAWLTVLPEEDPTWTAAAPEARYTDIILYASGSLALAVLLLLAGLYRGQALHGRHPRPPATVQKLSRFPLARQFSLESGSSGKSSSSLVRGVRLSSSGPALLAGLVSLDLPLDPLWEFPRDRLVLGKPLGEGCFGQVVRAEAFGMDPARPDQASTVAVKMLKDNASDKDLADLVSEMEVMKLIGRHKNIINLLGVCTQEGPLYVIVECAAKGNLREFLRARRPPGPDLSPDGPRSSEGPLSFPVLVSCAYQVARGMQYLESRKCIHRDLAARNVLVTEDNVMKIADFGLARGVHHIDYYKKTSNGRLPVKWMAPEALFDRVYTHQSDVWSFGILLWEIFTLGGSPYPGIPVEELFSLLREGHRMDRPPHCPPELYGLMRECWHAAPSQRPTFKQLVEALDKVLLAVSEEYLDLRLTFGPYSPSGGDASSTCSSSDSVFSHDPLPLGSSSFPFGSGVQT
Sequence of Serine/threonine-protein kinase PAK 4 (Homo sapiens) (O96013 whole entry, looked up): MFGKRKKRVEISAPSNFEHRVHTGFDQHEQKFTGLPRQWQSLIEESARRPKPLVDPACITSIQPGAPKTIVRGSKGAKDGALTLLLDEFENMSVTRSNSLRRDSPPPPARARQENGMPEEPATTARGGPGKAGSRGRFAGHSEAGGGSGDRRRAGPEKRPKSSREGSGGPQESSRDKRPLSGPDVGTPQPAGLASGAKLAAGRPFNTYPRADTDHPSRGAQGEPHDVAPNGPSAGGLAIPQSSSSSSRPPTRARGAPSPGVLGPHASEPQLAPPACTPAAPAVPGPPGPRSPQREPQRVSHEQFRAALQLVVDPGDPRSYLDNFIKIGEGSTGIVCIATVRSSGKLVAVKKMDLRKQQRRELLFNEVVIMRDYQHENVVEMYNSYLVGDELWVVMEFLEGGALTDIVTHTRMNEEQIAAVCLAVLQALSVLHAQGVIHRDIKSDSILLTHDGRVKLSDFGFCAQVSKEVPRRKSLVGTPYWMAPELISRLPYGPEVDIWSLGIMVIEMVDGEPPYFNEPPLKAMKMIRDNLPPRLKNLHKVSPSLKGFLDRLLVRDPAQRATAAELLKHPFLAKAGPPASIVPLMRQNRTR

IC50 [3]: 588 nM | Cmax [5]: 8020 ng/mL | inhibition [6]: inactive | inhibition [7]: inactive | Activity [11]: 22% | inhibition [14]: inactive | IC50 [15]: 475 nM | inhibition [16]: inactive | inhibition [17]: inactive | inhibition [18]: Dose-dependent-effect | inhibition [19]: inactive | inhibition [21]: inactive | inhibition [22]: inactive | inhibition [23]: inactive | half-life [24]: 3.57 h | inhibition [27]: inactive | inhibition [28]: inactive | IC50 [29]: 112 nM | half-life [31]: 2.46 h | inhibition [34]: inactive | inhibition [35]: inactive | inhibition [36]: inactive | inhibition [37]: inactive | bioavailability [38]: 19.2%
SMILES: O=C(Nc1ccc(Oc2ccnc(NC(=O)N3CC(O)C3)c2)c(F)c1)c1cn(-c2cccnc2)nn1
Activity [1]: Non-toxic | Activity [2]: Not active; Compound Barely Affect Flt3 Level | Activity [4]: 3.57% | inhibition [8]: inactive | Activity [9]: Non-toxic | Activity [10]: Active | Activity [12]: 1.05% | viability at 3 µM [13]: 50.6% | Activity [20]: 6.54% | IC50 [25]: > 30000 nM | Activity [26]: 89.9% | Activity [30]: Non-toxic | Activity [32]: 87.7% | IC50 [33]: > 30000 nM

Reference: ChEMBL document CHEMBL6074715, “Discovery of pyridine-based derivatives as FLT3 inhibitors for the treatment of acute myeloid leukemia” (Eur J Med Chem, 2025)
